According to patent US11242537B2, “Method for improving sensitivity of plant to gibberellin inhibitor and use thereof” (CHINA AGRICULTURAL UNIVERSITY, priority 2017, dated 2022):

Tests used:
[1] = test system: HRP::ga1-1; experiment: Effect of DPC on plant height of transgenic Arabidopsis thaliana (step 4.1), HRP::ga1-1; type: in vivo; conditions: for Plant height reduction rate / Plant height: HRP::ga1-1; for Plant height reduction rate: relative to 0 mg/L DPC-treated plant; for Plant height: cultured 12 days
Method: (§1) In the following examples, the growth conditions of Arabidopsis thaliana are: culturing in a growth chamber with a photoperiod of 16 h light/8 h dark, a light intensity of 60 μmol/m^2/s, a humidity of 60%-70%, and a temperature of 22° C.
(§2) The experiment was repeated three times, and the specific steps of each repeated experiment were as follows:
(§3) Thirty homozygous line plants of the HRP::ga1-1 of step 2 were randomly selected and randomly divided into three groups, ten plants in each group. On the 33rd day of sowing (the day of sowing was recorded as the first day of sowing), the plants of these three groups were treated as follows, respectively one group was sprayed with water (i.e., 0 mg/L DPC solution) and cultured for 12 days to obtain untreated HRP::ga1-1; one group was sprayed with 30 mg/L DPC solution and cultured for 12 days to obtain 30 mg/L DPC-treated HRP::ga1-1; the last group was sprayed with 500 mg/L aqueous DPC solution and cultured for 12 days to obtain 500 mg/L DPC-treated HRP::ga1-1.
(§4) The plant heights of the above Arabidopsis thaliana before the treatment (FIG. 1) and after different treatments (FIG. 2 and Table 2) were measured.

[2] = test system: HRP::ga1-5; experiment: Effect of DPC on plant height (step 4.1), HRP::ga1-5; type: in vivo, Arabidopsis thaliana; conditions: for Plant height / Plant height reduction rate: HRP::ga1-5; for Plant height: 12 days; for Plant height reduction rate: relative to 0 mg/L
Method: as §1, §2, §3
According to the above method, the homozygous line plants of the HRP::ga1-1 were replaced with the homozygous line plants of the HRP::ga1-5, the homozygous line plants of the ZmCPS::ga1-1, the homozygous line plants of the ZmCPS::ga1-5, the homozygous line plants of the PsSuper1300::ga1-1 and the homozygous line plants of the PsSuper1300::ga1-5 respectively, the other steps were unchanged, and untreated HRP::ga1-5, 30 mg/L DPC-treated HRP::ga1-5, 500 mg/L DPC-treated HRP::ga1-5, untreated ZmCPS::ga1-1, 30 mg/L DPC-treated ZmCPS::ga1-1, 500 mg/L DPC-treated ZmCPS::ga1-1, untreated ZmCPS::ga1-5, 30 mg/L DPC-treated ZmCPS::ga1-5, 500 mg/L DPC-treated ZmCPS::ga1-5, untreated PsSuper1300::ga1-1, 30 mg/L DPC-treated PsSuper1300::ga1-1, 500 mg/L DPC-treated PsSuper1300::ga1-1, untreated PsSuper1300::ga1-5, 30 mg/L DPC-treated PsSuper1300::ga1-5 and 500 mg/L DPC-treated PsSuper1300::ga1-5 were obtained, respectively.
as §4

C[N+]1(C)CCCCC1.[Cl-] [DPC, 1,1-dimethylpiperidinium chloride]
Plant height of HRP::ga1-1 as multiple of correspondingly treated ZmCPS::ga1-1 ([1]; 30 mg/L DPC): 0.68 times | Plant height of HRP::ga1-1 as multiple of correspondingly treated ga1-1 ([1]; 30 mg/L DPC): 2.71 times | Plant height reduction rate of HRP::ga1-1 as multiple of that of ga1-1 ([1]; 30 mg/L DPC): 2.49 times | Plant height of HRP::ga1-1 as multiple of correspondingly treated ZmCPS::ga1-1 ([1]; 500 mg/L DPC): 0.41 times | Plant height of HRP::ga1-1 as multiple of correspondingly treated ga1-1 ([1]; 500 mg/L DPC): 1.71 times | Plant height reduction rate of HRP::ga1-1 as multiple of that of ga1-1 ([1]; 500 mg/L DPC): 3.47 times | Plant height reduction rate ([1]; 30 mg/L DPC): 33.92% | Plant height reduction rate ([1]; 500 mg/L DPC): 60.18% | Plant height ([1]; sprayed with 30 mg/L DPC on 33rd day of sowing): 11.2 ± 0.24 cm | Plant height ([1]; sprayed with 500 mg/L DPC on 33rd day of sowing): 6.75 ± 0.38 cm | Plant height of HRP::ga1-5 as multiple of correspondingly treated ZmCPS::ga1-5 ([2]; 30 mg/L DPC): 0.64 times | Plant height of HRP::ga1-5 as multiple of correspondingly treated ga1-5 ([2]; 30 mg/L DPC): 1.65 times | Plant height reduction rate of HRP::ga1-5 as multiple of that of ga1-5 ([2]; 30 mg/L DPC): 4.68 times | Plant height of HRP::ga1-5 as multiple of correspondingly treated ZmCPS::ga1-5 ([2]; 500 mg/L DPC): 0.38 times | Plant height of HRP::ga1-5 as multiple of correspondingly treated ga1-5 ([2]; 500 mg/L DPC): 1.00 times | Plant height reduction rate of HRP::ga1-5 as multiple of that of ga1-5 ([2]; 500 mg/L DPC): 6.66 times | Plant height ([2]; 30 mg/L DPC spray): 10.80 ± 0.43 cm | Plant height reduction rate ([2]; 30 mg/L DPC): 31.99% | Plant height ([2]; 500 mg/L DPC spray): 6.41 ± 0.18 cm | Plant height reduction rate ([2]; 500 mg/L DPC): 59.63%
